Source: article PMC8286840, “Identifying SARS-CoV-2 antiviral compounds by screening for small molecule inhibitors of Nsp3 papain-like protease” (Biochemical Journal, 2021)
Where a name gives a salt, the structure may show the parent alone. Read-outs that look alike come from different tables or passages of the source.

Key:
[1] = target: T1, SARS-CoV-2 PLpro (nsp3 1564–1878) (Severe acute respiratory syndrome coronavirus 2, UniProt P0DTD1); assay: biochemical; design: FRET-quenched peptide (Pro3) cleavage by PLpro, 10 min pre-incubation, slope over 20 min, normalised to no-compound control; settings: read-out: % of control remaining
[2] = target: T1, SARS-CoV-2 PLpro (nsp3 1564–1878); assay: biochemical; design: FRET-quenched peptide (Pro3) cleavage by PLpro, 10 min pre-incubation, slope over 20 min, normalised to no-compound control; settings: read-out: % of control remaining; remark: listed apart in the source

Work on `CC(C)C[C@H](NC(=O)[C@@H](COC(C)(C)C)NC(=O)[C@H](Cc1ccc(O)cc1)NC(=O)[C@H](CO)NC(=O)[C@H](Cc1c[nH]c2ccccc12)NC(=O)[C@H](Cc1cnc[nH]1)NC(=O)[C@@H]1CCC(=O)N1)C(=O)N[C@@H](CCCNC(=N)N)C(=O)N1CCC[C@H]1C(=O)NNC(N)=O` [Goserelin (acetate)] yielded a remaining activity at 1.25 µM ([1]; Well no.=7338, low concentration screen) of 97.1% and a remaining activity at 3.75 µM ([2]; Well no.=7338, high concentration screen) of 95%.
With `Oc1cc2c(cc1O)[C@H]1c3ccccc3CN[C@@H]1CC2` (racemic) [Dihydrexidine hydrochloride] the remaining activity at 1.25 µM ([1]; Well no.=645, low concentration screen) was 87.6% and the remaining activity at 3.75 µM ([2]; Well no.=645, high concentration screen) was 91.3%.
Compound `CN(C)CC(c1ccc(O)cc1)C1(O)CCCCC1` (centres unmarked) [Desvenlafaxine] has a remaining activity at 1.25 µM ([1]; Well no.=5164, low concentration screen) of 94.5% and a remaining activity at 3.75 µM ([2]; Well no.=5164, high concentration screen) of 96.9%.
Compound `CC(=O)SCC[N+](C)(C)C` [Acetylthiocholine chloride] has a remaining activity at 1.25 µM ([1]; Well no.=257, low concentration screen) of 97.5% and a remaining activity at 3.75 µM ([2]; Well no.=257, high concentration screen) of 99.3%.
In the case of `CNCC(O)c1ccc(O)c(O)c1` (racemic) [DL-Adrenaline], the remaining activity at 1.25 µM ([1]; Well no.=5278, low concentration screen) is reported as 96.6% and the remaining activity at 3.75 µM ([2]; Well no.=5278, high concentration screen) is reported as 94.3%.
Compound `Cc1cnc(NC(=O)C2=C(O)c3ccccc3S(=O)(=O)N2C)s1` [Meloxicam sodium] has a remaining activity at 1.25 µM ([1]; Well no.=974, low concentration screen) of 98.2% and a remaining activity at 3.75 µM ([2]; Well no.=974, high concentration screen) of 99.2%.
With `C[N+]1(C)CCN(c2ccccc2)CC1` [1,1-Dimethyl-4-phenyl-piperazinium iodide] the remaining activity at 1.25 µM ([1]; Well no.=741, low concentration screen) was 92% and the remaining activity at 3.75 µM ([2]; Well no.=741, high concentration screen) was 92.3%.
`Cc1ccc(C)c(OCCn2cc(C(=O)O)c3ccccc32)c1` [ML-098] showed a remaining activity at 1.25 µM [1] of 98.4% and a remaining activity at 3.75 µM [2] of 97.6%.
Compound `C=C[C@H]1CN2CC[C@H]1C[C@@H]2[C@@H](O)c1ccnc2ccccc12` [(+)-Cinchonine] has a remaining activity at 1.25 µM ([1]; Well no.=3198, low concentration screen) of 109% and a remaining activity at 3.75 µM ([2]; Well no.=3198, high concentration screen) of 107%.
For `CC(=O)N[C@@H]1[C@@H](O)[C@H](O)[C@@H](CO)O[C@@H]1O` [N-Acetyl-D-glucosamine], the remaining activity at 1.25 µM ([1]; Well no.=6881, low concentration screen) was 100% and the remaining activity at 3.75 µM ([2]; Well no.=6881, high concentration screen) was 95%.
`Cc1cc(NC(=O)Nc2ccc(N(C)C)cc2)c2cc(F)cc(F)c2n1` [SB-408124 (Hydrochloride)] gave a remaining activity at 1.25 µM ([1]; Well no.=6939, low concentration screen) of 99.4% and a remaining activity at 3.75 µM ([2]; Well no.=6939, high concentration screen) of 98.8%.
With `CN(C)CCOC(=O)COc1ccc(Cl)cc1` [Centrophenoxine hydrochloride] the remaining activity at 1.25 µM ([1]; Well no.=46, low concentration screen) was 103% and the remaining activity at 3.75 µM ([2]; Well no.=46, high concentration screen) was 107%.
In the case of `Nc1cccc(-c2cc3c(Oc4cccc(O)c4)ncnc3[nH]2)c1` [GSK3b Inhibitor XII, TWS119], the remaining activity at 1.25 µM ([1]; Well no.=2608, low concentration screen) is reported as 97.8% and the remaining activity at 3.75 µM ([2]; Well no.=2608, high concentration screen) is reported as 95.8%.
Work on `CN(C)CC#Cc1ccc(OCCCc2sc(N3CCc4cccc(C(=O)Nc5nc6ccccc6s5)c4C3)nc2C(=O)O)c(F)c1` [A-1155463] yielded a remaining activity at 1.25 µM ([1]; Well no.=6344, low concentration screen) of 96.3% and a remaining activity at 3.75 µM ([2]; Well no.=6344, high concentration screen) of 97.3%.
In the case of `CNC(=O)[C@H](Cc1c[nH]c2ccccc12)NC(=O)[C@@H](CC(=O)NO)CC(C)C` [Ilomastat (GM6001, Galardin)], the remaining activity at 1.25 µM ([1]; Well no.=9030, low concentration screen) is reported as 101% and the remaining activity at 3.75 µM ([2]; Well no.=9030, high concentration screen) is reported as 94.4%.
`CN1C(=O)NC(Cc2c[nH]c3c(Cl)cccc23)C1=O` (racemic) [Necrostatin 2 (racemate)] was tested, and the remaining activity at 1.25 µM ([1]; Well no.=6828, low concentration screen) was 99.1% and the remaining activity at 3.75 µM ([2]; Well no.=6828, high concentration screen) was 95%.
`COc1ccc(C(=O)Nc2sc3c(c2C(N)=O)CCCC3)cc1OC` [Flt-3 Inhibitor] showed a remaining activity at 1.25 µM ([1]; Well no.=2407, low concentration screen) of 105% and a remaining activity at 3.75 µM ([2]; Well no.=2407, high concentration screen) of 105%.
For `Nc1nc(NCCNc2ncc(-n3ccnc3)c(-c3ccc(Cl)cc3Cl)n2)ccc1[N+](=O)[O-]` [CHIR-98014], the remaining activity at 1.25 µM ([1]; Well no.=5035, low concentration screen) was 101% and the remaining activity at 3.75 µM ([2]; Well no.=5035, high concentration screen) was 96.8%.
`C=C1/C(=C\C=C2/CCC[C@]3(C)[C@@H]([C@H](C)/C=C/[C@@H](O)C4CC4)CC[C@@H]23)C[C@@H](O)C[C@@H]1O` [Calcipotriene] showed a remaining activity at 1.25 µM ([1]; Well no.=1760, low concentration screen) of 96.1% and a remaining activity at 3.75 µM ([2]; Well no.=1760, high concentration screen) of 96.3%.
Compound `CCN1CCN(C(=O)N[C@@H](C(=O)N[C@@H]2C(=O)N3[C@@H]2SC(C)(C)[C@@H]3C(=O)O)c2ccccc2)C(=O)C1=O` [Piperacillin (sodium)] has a remaining activity at 1.25 µM ([1]; Well no.=8072, low concentration screen) of 96.2% and a remaining activity at 3.75 µM ([2]; Well no.=8072, high concentration screen) of 91.7%.
Work on `NC(=O)OCC(COC(N)=O)c1ccccc1` [Felbamate] yielded a remaining activity at 1.25 µM ([1]; Well no.=609, low concentration screen) of 101%, a remaining activity at 1.25 µM ([1]; Well no.=1543, low concentration screen) of 102% and a remaining activity at 3.75 µM ([2]; Well no.=609, high concentration screen) of 104%. For the same compound, the remaining activity at 3.75 µM ([2]; Well no.=1543, high concentration screen) was 101%.
Work on `O=C(NC1CCOCC1)c1ccc(-c2cc(-c3c[nH]nc3-c3ccccn3)ccn2)cc1` [GW788388] yielded a remaining activity at 1.25 µM ([1]; Well no.=5067, low concentration screen) of 102% and a remaining activity at 3.75 µM ([2]; Well no.=5067, high concentration screen) of 106%.
Compound `NC(=O)Nc1sc(-c2ccccc2)cc1C(N)=O` [IKK-2 Inhibitor VI] has a remaining activity at 1.25 µM ([1]; Well no.=2437, low concentration screen) of 107% and a remaining activity at 3.75 µM ([2]; Well no.=2437, high concentration screen) of 106%.
For `Nc1cc(C(Cl)=C(Cl)Cl)c(S(N)(=O)=O)cc1S(N)(=O)=O` [Clorsulon], the remaining activity at 1.25 µM ([1]; Well no.=5298, low concentration screen) was 87.3%, the remaining activity at 1.25 µM ([1]; Well no.=7310, low concentration screen) was 99.9% and the remaining activity at 3.75 µM ([2]; Well no.=5298, high concentration screen) was 87.7%. For the same compound, the remaining activity at 3.75 µM ([2]; Well no.=7310, high concentration screen) was 97.7%.
Compound `CCCCCCN(CCCCCC)C(=O)Cc1c(-c2ccc(F)cc2)[nH]c2ccccc12` [N,N-Dihexyl-2-(4-fluorophenyl)indole-3-acetamide] has a remaining activity at 1.25 µM ([1]; Well no.=632, low concentration screen) of 99.3% and a remaining activity at 3.75 µM ([2]; Well no.=632, high concentration screen) of 96.6%.
Compound `O=C1C(O)=C([C@H]2CC[C@H](c3ccc(Cl)cc3)CC2)C(=O)c2ccccc21` [Atovaquone] has a remaining activity at 1.25 µM ([1]; Well no.=1838, low concentration screen) of 92.3% and a remaining activity at 3.75 µM ([2]; Well no.=1838, high concentration screen) of 94.9%.
Compound `COC1CCN(C(=O)c2cc(Cc3n[nH]c(=O)c4ccccc34)ccc2F)CC1` [AZD2461] has a remaining activity at 1.25 µM ([1]; Well no.=5172, low concentration screen) of 105% and a remaining activity at 3.75 µM ([2]; Well no.=5172, high concentration screen) of 102%.
In the case of `O=c1c(O)c(-c2ccc(O)c(O)c2)oc2cc(O)ccc12` [Fisetin], the remaining activity at 1.25 µM ([1]; Well no.=3443, low concentration screen) is reported as 91.4%, the remaining activity at 1.25 µM ([1]; Well no.=6254, low concentration screen) is reported as 104% and the remaining activity at 3.75 µM ([2]; Well no.=3443, high concentration screen) is reported as 95%. It also gave a remaining activity at 3.75 µM ([2]; Well no.=6254, high concentration screen) of 99.6%.
Compound `CC(C)C(=O)Nc1ccc([N+](=O)[O-])c(C(F)(F)F)c1` [Flutamide] has a remaining activity at 1.25 µM ([1]; Well no.=759, low concentration screen) of 90.8%, a remaining activity at 1.25 µM ([1]; Well no.=2130, low concentration screen) of 93% and a remaining activity at 3.75 µM ([2]; Well no.=759, high concentration screen) of 97.8%. For the same compound, the remaining activity at 3.75 µM ([2]; Well no.=2130, high concentration screen) was 95%.
For `CC(=O)N[C@@H](CSC/C=C(\C)CC/C=C(\C)CCC=C(C)C)C(=O)O` [Acetyl-farnesyl-cysteine], the remaining activity at 1.25 µM ([1]; Well no.=4342, low concentration screen) was 102% and the remaining activity at 3.75 µM ([2]; Well no.=4342, high concentration screen) was 102%.
With `CC[C@@H](Nc1c(Nc2cccc(C(=O)N(C)C)c2O)c(=O)c1=O)c1ccc(C)o1` [Navarixin] the remaining activity at 1.25 µM ([1]; Well no.=8175, low concentration screen) was 105% and the remaining activity at 3.75 µM ([2]; Well no.=8175, high concentration screen) was 101%.
For `O=C(Nc1ccc(Cl)cc1CN1C(=O)c2ccccc2C1=O)c1ccccc1O` [CPPHA], the remaining activity at 1.25 µM ([1]; Well no.=7243, low concentration screen) was 101% and the remaining activity at 3.75 µM ([2]; Well no.=7243, high concentration screen) was 97.3%.
`O=C1CCc2c(ccc3ccccc23)O1` [Splitomicin] gave a remaining activity at 1.25 µM ([1]; Well no.=5525, low concentration screen) of 105% and a remaining activity at 3.75 µM ([2]; Well no.=5525, high concentration screen) of 120%.
